# Patent US9458196B2, “Synthetic peptides capable of binding to influenza hemagglutinin protein” (priority 2012, dated 2016)
# Tested on: HA proteins from five different viral strains H1N1, H5N1, H9N2, H3N2 and H14N5
# Assay type: biochemical, influenza virus
row,Sequence,ability to block pH triggered shape changes / low pH induced association of HA proteins
1,TSRSQQTVIP [PF32],ability to block pH triggered shape changes
2,PYDVPDYA [PF12],ability to block pH triggered shape changes
3,AERPKVRGQAGRMN [LPF54],ability to block pH triggered shape changes
4,KEFSEVEGR [PF41],ability to block pH triggered shape changes
5,PGDFNDYE [PF13],ability to block pH triggered shape changes
6,KEFNNLEKR [PF42],ability to block pH triggered shape changes
7,TKRSQQTVIP [PF31],ability to block pH triggered shape changes
8,PYDVPDYE [PF11],ability to block pH triggered shape changes
